Results from BindingDB's records for PubMed 33077264 (Menoufia University, 2021).

Target: Lysine-specific histone demethylase 1A (Homo sapiens, UniProt O60341)
Test: Inhibition of N-terminal GST tagged LSD1 (residues 171 - 852) (unknown origin) overexpressed in Escherichia coli using ARTK(Me)2QTARKSTGGKAPRKQLAas substrate incubated for 20 mins by spectrophotometric analysis

Nc1ccccc1NC(=O)c1ccc(CCCC(=O)Nc2ccc(C3CC3N)cc2)cc1 (stereo unspecified)
IC50: 330 nM
